The values that follow come from ChEMBL document CHEMBL4118215, “Design and synthesis of functionalized piperazin-1yl-(E)-stilbenes as inhibitors of 17α-hydroxylase-C17,20-lyase (Cyp17)” (Bioorg Med Chem Lett, 2018).

Series [1] addresses T1, Steroid 17-alpha-hydroxylase/17,20 lyase (Homo sapiens, UniProt P05093).
T1 sequence (P05093 whole entry): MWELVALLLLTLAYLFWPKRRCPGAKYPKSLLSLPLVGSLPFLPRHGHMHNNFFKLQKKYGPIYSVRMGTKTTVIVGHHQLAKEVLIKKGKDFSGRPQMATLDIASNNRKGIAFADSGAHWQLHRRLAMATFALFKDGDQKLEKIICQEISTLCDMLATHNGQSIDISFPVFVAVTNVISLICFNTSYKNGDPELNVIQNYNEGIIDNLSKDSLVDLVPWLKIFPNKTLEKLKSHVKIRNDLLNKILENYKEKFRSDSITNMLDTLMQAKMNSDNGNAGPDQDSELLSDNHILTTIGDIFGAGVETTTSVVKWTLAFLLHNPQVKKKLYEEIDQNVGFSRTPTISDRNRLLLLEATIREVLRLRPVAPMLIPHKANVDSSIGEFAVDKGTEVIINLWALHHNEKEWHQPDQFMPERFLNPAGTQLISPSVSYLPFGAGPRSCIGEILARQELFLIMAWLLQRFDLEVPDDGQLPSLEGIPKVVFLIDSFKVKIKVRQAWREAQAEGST
Put plainly: Inhibition of recombinant CYP17 (unknown origin) expressed in human AD293 cells using [21-3H]17alpha-hydroxypregnenolone as substrate preincubated for 60 mins followed by substrate addition measured after 4 hrs Topcount method. Type of series: cell-based.

The species entered for series [2] is Homo sapiens. Briefly: Selectivity index, ratio of IC50 for CYP19 (unknown origin) to IC50 for recombinant CYP17 (unknown origin).
Series [3] in a line: Volume of distribution in guinea pig at 1 mg/kg, iv by LC-MS/MS analysis. Type of series: ADME, organism-based, Cavia porcellus. The settings on record: in vivo.
Series [4] is described as follows: Half-life in guinea pig liver microsomes in presence of NADPH regenerating system by LC/MS/MS method. The class given is ADME, Cavia porcellus, microsome. For orientation: Liver microsomes are vesicles of endoplasmic reticulum, rich in cytochrome P450 enzymes.
Series [5] in a line: Cmax in guinea pig at 1 mg/kg, iv by LC-MS/MS analysis. Type of series: ADME, organism-based, Cavia porcellus. Details: dose 1 mg/kg, route intravenous. The following applies: in vivo.
A short description of series [6]: Clearance in guinea pig at 1 mg/kg, iv by LC-MS/MS analysis. The class given is ADME, organism-based, Cavia porcellus. The following applies: in vivo.
Series [7] in a line: AUC (0 to infinity) in guinea pig at 1 mg/kg, iv by LC-MS/MS analysis. The settings on record: in vivo. Details: dose 1 mg/kg, route intravenous, time infinity. The class given is ADME, organism-based, Cavia porcellus.
Series [8] has as its system Cavia porcellus. Put plainly: Cmax in guinea pig at 10 mg/kg, po by LC-MS/MS analysis. The class given is ADME, organism-based. Set-up: dose 10 mg/kg, route oral. The following applies: in vivo.
Series [9] has as its system Cavia porcellus. Briefly: AUC (0 to infinity) in guinea pig at 10 mg/kg, po by LC-MS/MS analysis. The class given is ADME, organism-based. Set-up: dose 10 mg/kg, time infinity, route oral. The following applies: in vivo.
Series [10] is described as follows: Half-life in guinea pig at 1 mg/kg, iv by LC-MS/MS analysis. Type of series: ADME, organism-based, Cavia porcellus. The following applies: in vivo.
A short description of series [11]: Tmax in guinea pig at 1 mg/kg, iv by LC-MS/MS analysis. The settings on record: in vivo. Type of series: ADME, organism-based, Cavia porcellus.
The subject of series [12] is Cavia porcellus. Put plainly: Half-life in guinea pig at 10 mg/kg, po by LC-MS/MS analysis. Type of series: ADME, organism-based. The settings on record: in vivo.
Series [13] is filed under the species Homo sapiens. Briefly: Selectivity index, ratio of IC50 for human CYP3A4 to IC50 for recombinant CYP17 (unknown origin).
The test system of series [14] is Cavia porcellus. Put plainly: Oral bioavailability in guinea pig at 10 mg/kg by LC-MS/MS analysis. The following applies: in vivo. Type of series: ADME, organism-based.

By IC50 is commonly meant the concentration that inhibits the measured activity by half. In general, Vd refers to the apparent volume that relates the amount in the body to the concentration in plasma or blood. The low end stands for confinement near the circulation, the high end for extensive tissue distribution. What is called half-life is the time in which the quantity being followed falls by half. Broadly, the Cmax is the highest concentration seen after dosing. The clearance is the rate of elimination divided by the concentration. Low readings indicate inefficient removal, high ones efficient removal. By AUC(0-inf) is commonly meant the area under the concentration-time curve extrapolated to infinity. By AUC is commonly meant the area under the concentration-time curve, a measure of exposure. Low values mean low exposure, high ones high exposure. As usually defined, the Tmax is the time from dosing to the highest level.

Consider `O=S(=O)(C(F)F)N1CCN(c2ccc(/C=C/c3cc(F)cc(Cn4ccnc4)c3)cc2)CC1`, for which the IC50 in series [1] was 5 nM.
With `CCS(=O)(=O)N1CCN(c2ccc(/C=C/c3cc(F)cc(-c4ccncc4)c3)cc2)CC1`, the Ratio IC50 in the series listed under Homo sapiens [2] was 2000; in the series filed under Homo sapiens [13], 49. Moreover, the Vd in series [3] was determined as 4.05 L/kg. Also, the half-life in series [4] was 1 h; in series [10], 5.7 h. In addition, the results for the Cmax (in series [5]; in the series on Cavia porcellus [8]) were 852 ng/mL and 540 ng/mL, respectively. This molecule showed a clearance in series [6] of 8.79 mL/min/kg. In addition, the area under the curve AUC(0-inf) in [7] amounted to 2000 ng·h/mL. For the same molecule, the AUC with Cavia porcellus [9] is 4190 ng·h/mL. Also, the time of peak concentration (Tmax) in series [11] was determined as 0.15 h. The t1/2 in the series on Cavia porcellus [12] turned out to be 4.8 h.
`N=C(N)N1CCN(c2ccc(/C=C/c3cc(Cl)cc(-c4ccncc4)c3)cc2)CC1`: the IC50 in series [1] was 17 nM.
On the same count and under the same terms, the same measure for `O=S(=O)(C(F)F)N1CCN(c2ccc(/C=C/c3cc(Cl)cc(-c4ccncc4)c3)cc2)CC1`: 5 nM.
Still for that read-out and setting: next, `O=S(=O)(C1CC1)N1CCN(c2ccc(/C=C/c3cc(F)cc(Cn4ccnc4)c3)cc2)CC1`: 34 nM; `O=S(=O)(C(F)F)N1CCN(c2ccc(/C=C/c3cc(F)cc(-c4ccncc4)c3)cc2)CC1`: 5 nM.
Consider `O=S(=O)(N1CCN(c2ccc(/C=C/c3cc(F)cc(-c4ccncc4)c3)cc2)CC1)C(F)(F)F`, for which the results for the Ratio IC50 in the series listed under Homo sapiens [2] and in the series listed under Homo sapiens [13] were 167 and 1560, respectively. The same molecule had a Vd in series [3] of 9.1 L/kg. The figures for the half-life in series [4] and in [10] were 1 h and 5 h, respectively. The peak concentration (Cmax) in series [5] was 203 ng/mL; in the series on Cavia porcellus [8] it was 271 ng/mL. The molecule also showed a clearance in [6] of 20.9 mL/min/kg. In series [1], the half-inhibitory concentration (IC50) turned out to be 2 nM. The molecule also came in with a total exposure AUC(0-inf) in series [7] of 815 ng·h/mL. The molecule also came in with an AUC in the series on Cavia porcellus [9] of 2452 ng·h/mL. For the same molecule, the Tmax in [11] was determined as 0.2 h. This molecule also registered a t1/2 with Cavia porcellus [12] of 5.25 h.
For `CC(=O)N1CCN(c2ccc(/C=C/c3cc(F)cc(-c4ccncc4)c3)cc2)CC1`, the values for the Ratio IC50 in the series filed under Homo sapiens [2] and in the series filed under Homo sapiens [13] were 2170 and 151, respectively. Besides, the volume of distribution (Vd) in series [3] is 14.8 L/kg. Further, the results for the half-life in series [4] and in series [10] were 1 h and 6 h, respectively. Besides, the results for the highest concentration (Cmax) (in series [5]; with Cavia porcellus [8]) were 132 ng/mL and 1018 ng/mL, respectively. Further, in series [6], the clearance came to 28.5 mL/min/kg. Also, in series [7], the total exposure AUC(0-inf) stood at 586 ng·h/mL. In the series on Cavia porcellus [9], this molecule gave an AUC of 14890 ng·h/mL. In addition, the time of peak concentration (Tmax) in series [11] worked out at 0.1 h. Moreover, the t1/2 in the series with Cavia porcellus [12] amounted to 6 h. In addition, in the series on Cavia porcellus [14], the F was determined as 184.2%.
In the case of `CC(=O)N1CCN(c2ccc(OCC3COC(Cn4ccnc4)(c4ccc(Cl)cc4Cl)O3)cc2)CC1` (stereo unspecified) [KETOCONAZOLE], the half-life in series [4] came to 0.667 h.
Consider `O=S(=O)(C1CC1)N1CCN(c2ccc(/C=C/c3cc(F)cc(-c4ccncc4)c3)cc2)CC1`, for which the IC50 in series [1] was determined as 1 nM.
On the same count and under the same terms, next, `N#CCS(=O)(=O)N1CCN(c2ccc(/C=C/c3cc(Cl)cc(-c4ccncc4)c3)cc2)CC1`: 6 nM.
